# Values quoted from earlier work in patent publication EP0262930B1, “Process for forming a colour positive image” (KONICA CORPORATION, priority 1986, dated 1988).
# Conditions: partition coefficient n-octanol/water; solvents not desired in the color developing solution
row,log P,Compound
1,log P 0.41.,CCCCOCCOCCO [Diethylene glycol monobutyl ether]
2,log P 0.4 or more,OCc1ccc(O)cc1 [p-Hydroxybenzyl alcohol]
3,log P 1.36,Cc1ccc(CO)cc1 [p-Tolylcarbinol]

# Continued, molecule first:
row,Compound,log P
1,Oc1ccccc1 [Phenol],log P 0.4 or more
2,OCc1ccccc1 [Benzyl alcohol],log P 1.0
3,CCCCCO [1-Pentanol],log P 0.4 or more
4,OCCOCc1ccccc1 [2-Benzyloxyethanol],log P 0.41
5,NCc1ccccc1 [Benzylamine],log P 0.4 or more
